Converted amounts (≈) assume the structure as drawn.
Columns and labels:
Solubility at pH 6.8 = type: physicochemical; conditions: pH 6.8, aqueous buffer, thermodynamic from solid; read-out: solubility
Outline: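 Solubility was measured at pH 6.8 following the cited Zhou et al. (2007) procedure.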

[1] = tested on: PKB Ser473 phosphorylation in Rat1-myr-HA-p110 beta cells; test: Reverse protein array assay, PKB Ser473 phosphorylation in Rat1-myr-p110 beta cells; type: cell-based; conditions: 0.5 h, pAkt Ser473, 30 minutes incubation, read-out: p-PKB IC50
Outline: (§1)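 Measured: PKB Ser473 phosphorylation by reverse protein array in Rat1 cells expressing myr-HA-p110 alpha, beta or delta, after 30 min compound treatment at 37 °C with 0.2% DMSO vehicle.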

PI3K delta = target: T1, PI3K delta (Homo sapiens, UniProt O00329); test: PI3K delta kinase assay (Kinase-Glo luminescence); type: biochemical
T1 construct: for the full-length p110-d subunit are generated and fused by overlapping PCR; p85(iSH2) fusion partner (see partner chain) (N); His tag (C); made in house; host or cells: baculovirus; Tn5 (Trichoplusia ni) or TiniPro insect cells
Outline: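 Construct BV-1060, p85 iSH2–linker–full-length p110δ, His-tagged, at 10 nM, with 1 μM ATP and 10 μg/mL phosphatidylinositol in pH 7.5 Tris, 3 mM MgCl2, 50 mM NaCl, 0.05% CHAPS. Run 60 min at room temperature; remaining ATP read by Kinase-Glo luminescence; IC50 from 4-parameter logistic fit of 8 concentrations.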

[2] = tested on: PKB Ser473 phosphorylation in Rat1-myr-HA-p110 delta cells; test: Reverse protein array assay, PKB Ser473 phosphorylation in Rat1-myr-p110 delta cells; type: cell-based; conditions: read-out: p-PKB IC50
Outline: as §1

[3] = tested on: PKB Ser473 phosphorylation in Rat1-myr-HA-p110 alpha cells; test: Reverse protein array assay, PKB Ser473 phosphorylation in Rat1-myr-p110 alpha cells; type: cell-based; conditions: 0.5 h, pAkt Ser473, 30 minutes compound incubation, read-out: p-PKB IC50
Outline: as §1

T1 sequence (O00329 with tags, fused parts or gaps limits assumed): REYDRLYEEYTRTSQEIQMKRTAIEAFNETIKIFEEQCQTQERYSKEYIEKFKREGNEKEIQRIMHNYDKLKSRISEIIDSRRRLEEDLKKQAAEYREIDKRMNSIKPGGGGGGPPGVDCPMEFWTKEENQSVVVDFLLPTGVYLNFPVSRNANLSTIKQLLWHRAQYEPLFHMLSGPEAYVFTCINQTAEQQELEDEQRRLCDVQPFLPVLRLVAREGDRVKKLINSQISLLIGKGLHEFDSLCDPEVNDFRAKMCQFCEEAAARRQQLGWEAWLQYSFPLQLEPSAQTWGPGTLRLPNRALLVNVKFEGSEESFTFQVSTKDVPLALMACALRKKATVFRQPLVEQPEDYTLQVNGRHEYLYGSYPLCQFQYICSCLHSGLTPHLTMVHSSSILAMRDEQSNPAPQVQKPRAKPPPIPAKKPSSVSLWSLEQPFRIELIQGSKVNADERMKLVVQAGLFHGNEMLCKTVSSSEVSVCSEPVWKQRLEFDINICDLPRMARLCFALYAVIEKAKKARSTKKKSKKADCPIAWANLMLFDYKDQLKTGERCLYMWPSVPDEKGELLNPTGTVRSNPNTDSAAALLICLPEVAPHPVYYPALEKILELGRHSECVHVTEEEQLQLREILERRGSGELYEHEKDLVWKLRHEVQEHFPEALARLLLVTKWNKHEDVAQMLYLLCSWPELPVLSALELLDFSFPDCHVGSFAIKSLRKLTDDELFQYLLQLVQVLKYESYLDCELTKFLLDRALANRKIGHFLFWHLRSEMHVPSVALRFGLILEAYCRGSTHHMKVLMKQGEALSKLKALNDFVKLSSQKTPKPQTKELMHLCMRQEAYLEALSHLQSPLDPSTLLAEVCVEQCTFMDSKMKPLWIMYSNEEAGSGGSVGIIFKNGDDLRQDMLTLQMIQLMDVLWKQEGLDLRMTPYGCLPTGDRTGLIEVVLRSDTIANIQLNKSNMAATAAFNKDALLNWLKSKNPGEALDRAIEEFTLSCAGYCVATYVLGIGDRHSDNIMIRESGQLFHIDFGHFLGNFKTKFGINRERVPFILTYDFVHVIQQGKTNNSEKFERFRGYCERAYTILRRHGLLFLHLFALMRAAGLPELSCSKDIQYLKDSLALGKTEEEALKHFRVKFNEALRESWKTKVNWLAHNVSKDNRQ

COc1ccc(-c2ccc3ncc4c(c3n2)n(-c2cn(C)nc2C)c(=O)n4C)cc1OC [Example 250, 8-(3,4-Dimethoxy-phenyl)-1-(1,3-dimethyl-1H-pyrazol-4-yl)-3-methyl-1,3-dihydro-1,3,5,9-tetraaza-cyclopenta[a]naphthalen-2-one]
solubility (Solubility at pH 6.8): 5 µg/mL (≈ 11.6 µM) | IC50 [1]: 97 nM | IC50 (PI3K delta): 17 nM | IC50 [2]: 118 nM | IC50 [3]: 41 nM
